Measurements taken from US8993542B2, “Methods of treating viral infections” (priority 2008, dated 2015).

Test system: HIV-1IIIB
Test: TCID50 determination of drug-treated HIV-1IIIB
Type: cell-based
Set-up: TCID50, XTT Endpoint / TCID50, RT Endpoint / TCID50, P24 Endpoint: unit not given here
[1] = 500 nM, compound removal at 120 minute
[2] = virus treated 15 minutes with 0.039 nM drug
[3] = virus treated 15 minutes with 0.125 nM drug
[4] = virus treated 15 minutes with 0.39 nM drug
[5] = virus treated 15 minutes with 1.25 nM drug
[6] = virus treated 15 minutes with 3.9 nM drug
[7] = virus treated 15 minutes with 12.5 nM drug
[8] = virus treated 15 minutes with 39.1 nM drug
[9] = virus treated 15 minutes with 125 nM drug
[10] = virus treated 2 hours with 125 nM drug
[11] = virus treated 2 hours with 250 nM drug
[12] = virus treated 2 hours with 500 nM drug
[13] = virus treated 2 hours with 1000 nM drug

CCCCCCCCCCCCCCCCOCCCOP(=O)(O)CO[C@H](C)Cn1cnc2c(N)ncnc21 [CMX157, Hexadecyloxypropyl-9-R-[2-(Phosphonomethoxy)Propyl]-Adenine]
Fold Decrease From VC, RT Endpoint [1]: (3.2) Fold | Fold Decrease From VC, XTT Endpoint [1]: (4.0) Fold | TCID50, P24 Endpoint [1]: 6398 | TCID50, RT Endpoint [1]: 25588 | TCID50, XTT Endpoint [1]: 1132 | concentrations resulting in reduced infectivity (15 minutes incubation): ≥ 3.9 nM | reduction of viral replication (1000, 500, 250 or 125 nM, 2 hours): 2-4 fold | Fold Decrease From VC, P24 Endpoint [2]: (0) Fold | Fold Decrease From VC, RT Endpoint [2]: (1.0) Fold | Fold Decrease From VC, XTT Endpoint [2]: (1.1) Fold | TCID50, P24 Endpoint [2]: 36337 | TCID50, RT Endpoint [2]: 157772 | TCID50, XTT Endpoint [2]: 16145 | Fold Decrease From VC, P24 Endpoint [3]: (0) Fold | Fold Decrease From VC, RT Endpoint [3]: (1.1) Fold | Fold Decrease From VC, XTT Endpoint [3]: (1.1) Fold | TCID50, P24 Endpoint [3]: 30411 | TCID50, RT Endpoint [3]: 144887 | TCID50, XTT Endpoint [3]: 16145 | Fold Decrease From VC, P24 Endpoint [4]: (1.4) Fold | Fold Decrease From VC, RT Endpoint [4]: (1.6) Fold | Fold Decrease From VC, XTT Endpoint [4]: (1.4) Fold | TCID50, P24 Endpoint [4]: 21529 | TCID50, RT Endpoint [4]: 102336 | TCID50, XTT Endpoint [4]: 12795 | Fold Decrease From VC, P24 Endpoint [5]: (0) Fold | Fold Decrease From VC, RT Endpoint [5]: (1.6) Fold | Fold Decrease From VC, XTT Endpoint [5]: (2.0) Fold | TCID50, P24 Endpoint [5]: 30411 | TCID50, RT Endpoint [5]: 102336 | TCID50, XTT Endpoint [5]: 9058 | Fold Decrease From VC, P24 Endpoint [6]: (2.0) Fold | Fold Decrease From VC, RT Endpoint [6]: (1.6) Fold | Fold Decrease From VC, XTT Endpoint [6]: (4.0) Fold | TCID50, P24 Endpoint [6]: 15207 | TCID50, RT Endpoint [6]: 102336 | TCID50, XTT Endpoint [6]: 4529 | Fold Decrease From VC, P24 Endpoint [7]: (5.6) Fold | Fold Decrease From VC, RT Endpoint [7]: (1.6) Fold | Fold Decrease From VC, XTT Endpoint [7]: (4.0) Fold | TCID50, P24 Endpoint [7]: 5383 | TCID50, RT Endpoint [7]: 102336 | TCID50, XTT Endpoint [7]: 4529 | Fold Decrease From VC, P24 Endpoint [8]: (4.0) Fold | Fold Decrease From VC, RT Endpoint [8]: (2.5) Fold | Fold Decrease From VC, XTT Endpoint [8]: (3.6) Fold | TCID50, P24 Endpoint [8]: 7604 | TCID50, RT Endpoint [8]: 64570 | TCID50, XTT Endpoint [8]: 5082 | Fold Decrease From VC, P24 Endpoint [9]: (4.0) Fold | Fold Decrease From VC, RT Endpoint [9]: (2.5) Fold | Fold Decrease From VC, XTT Endpoint [9]: (4.5) Fold | TCID50, P24 Endpoint [9]: 7604 | TCID50, RT Endpoint [9]: 64570 | TCID50, XTT Endpoint [9]: 4027 | Fold Decrease From VC, P24 Endpoint [10]: (4.0) Fold | Fold Decrease From VC, RT Endpoint [10]: (1.6) Fold | Fold Decrease From VC, XTT Endpoint [10]: (4.0) Fold | TCID50, P24 Endpoint [10]: 9058 | TCID50, RT Endpoint [10]: 51172 | TCID50, XTT Endpoint [10]: 1132 | Fold Decrease From VC, P24 Endpoint [11]: (3.4) Fold | Fold Decrease From VC, RT Endpoint [11]: (3.2) Fold | Fold Decrease From VC, XTT Endpoint [11]: (4.0) Fold | TCID50, P24 Endpoint [11]: 10765 | TCID50, RT Endpoint [11]: 25588 | TCID50, XTT Endpoint [11]: 1132 | Fold Decrease From VC, P24 Endpoint [12]: (4.8) Fold | Fold Decrease From VC, RT Endpoint [12]: (2.2) Fold | Fold Decrease From VC, XTT Endpoint [12]: (4.0) Fold | TCID50, P24 Endpoint [12]: 7604 | TCID50, RT Endpoint [12]: 36227 | TCID50, XTT Endpoint [12]: 1132 | Fold Decrease From VC, P24 Endpoint [13]: (4.8) Fold | Fold Decrease From VC, RT Endpoint [13]: (2.2) Fold | Fold Decrease From VC, XTT Endpoint [13]: (4.0) Fold | TCID50, P24 Endpoint [13]: 7604 | TCID50, RT Endpoint [13]: 36227 | TCID50, XTT Endpoint [13]: 1132
